Here are results for 1 compound from ChEMBL document CHEMBL4823254, “Tetrahydroquinoline-Capped Histone Deacetylase 6 Inhibitor SW-101 Ameliorates Pathological Phenotypes in a Charcot-Marie-Tooth Type 2A Mouse Model” (J Med Chem, 2021).

A short description of series [1]: Half life in mouse liver s9 fraction. The class given is ADME, subcellular.
Series [2] concerns the target T1, Histone deacetylase 8 (Homo sapiens, UniProt Q9BY41).
T1 sequence (Q9BY41 whole entry): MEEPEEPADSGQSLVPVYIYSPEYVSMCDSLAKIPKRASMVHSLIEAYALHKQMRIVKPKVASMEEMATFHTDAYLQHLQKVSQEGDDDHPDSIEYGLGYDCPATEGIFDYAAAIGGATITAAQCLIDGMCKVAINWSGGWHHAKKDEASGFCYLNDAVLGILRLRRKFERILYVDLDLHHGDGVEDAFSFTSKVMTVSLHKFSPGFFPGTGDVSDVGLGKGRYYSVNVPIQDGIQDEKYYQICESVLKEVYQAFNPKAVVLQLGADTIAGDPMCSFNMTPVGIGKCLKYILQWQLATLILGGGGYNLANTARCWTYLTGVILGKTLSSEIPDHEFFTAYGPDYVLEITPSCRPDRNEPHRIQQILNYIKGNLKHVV
Description: Inhibition of recombinant human HDAC8 using Boc-Lys(TFA)-AMC as substrate preincubated for 10 mins followed by substrate addition and measured after 30 mins by fluorescence-based assay

Series [3] addresses T2, Protein deacetylase HDAC6 (Mus musculus) (UniProt Q9Z2V5).
T2 sequence (whole entry): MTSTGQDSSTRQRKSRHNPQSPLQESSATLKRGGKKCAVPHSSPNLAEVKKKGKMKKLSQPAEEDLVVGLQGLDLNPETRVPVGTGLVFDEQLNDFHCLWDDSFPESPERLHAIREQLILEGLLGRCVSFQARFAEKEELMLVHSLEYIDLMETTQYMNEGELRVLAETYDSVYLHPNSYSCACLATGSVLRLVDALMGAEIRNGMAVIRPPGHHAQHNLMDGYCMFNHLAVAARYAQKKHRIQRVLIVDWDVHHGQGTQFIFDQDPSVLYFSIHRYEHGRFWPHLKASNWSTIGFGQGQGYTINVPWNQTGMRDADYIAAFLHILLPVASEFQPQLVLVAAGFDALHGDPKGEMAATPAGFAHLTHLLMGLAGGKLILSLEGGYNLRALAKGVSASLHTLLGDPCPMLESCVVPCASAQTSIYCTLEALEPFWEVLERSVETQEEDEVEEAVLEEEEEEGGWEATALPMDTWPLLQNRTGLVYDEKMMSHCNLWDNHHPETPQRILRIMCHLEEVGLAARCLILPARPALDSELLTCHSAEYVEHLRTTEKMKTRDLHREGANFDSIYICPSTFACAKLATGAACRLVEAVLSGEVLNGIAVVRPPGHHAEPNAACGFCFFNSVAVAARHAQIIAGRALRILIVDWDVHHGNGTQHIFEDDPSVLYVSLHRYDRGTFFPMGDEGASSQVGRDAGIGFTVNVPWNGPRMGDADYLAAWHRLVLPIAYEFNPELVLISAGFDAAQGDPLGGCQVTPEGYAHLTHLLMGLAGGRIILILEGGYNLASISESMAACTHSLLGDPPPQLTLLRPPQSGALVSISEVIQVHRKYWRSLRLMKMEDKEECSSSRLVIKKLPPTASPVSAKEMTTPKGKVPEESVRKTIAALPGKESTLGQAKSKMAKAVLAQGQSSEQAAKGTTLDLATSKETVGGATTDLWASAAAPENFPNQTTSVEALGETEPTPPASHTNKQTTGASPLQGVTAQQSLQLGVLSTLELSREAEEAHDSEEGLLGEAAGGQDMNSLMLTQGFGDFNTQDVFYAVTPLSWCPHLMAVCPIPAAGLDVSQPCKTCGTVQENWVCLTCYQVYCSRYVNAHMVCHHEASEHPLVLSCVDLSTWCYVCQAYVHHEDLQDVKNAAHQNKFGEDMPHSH
Nature of the series: In vivo inhibition of HDAC6 in wild type mouse assessed as increase in alpha-tubulin acetylation in sciatic nerve tissue at 20 mg/kg, ip administered for 12 hrs by immunoblot analysis relative to control. In kind it is functional, organism-based. Further details: scale not given: the % may be the effect or the level left.

Series [4] has as its target T3, Protein deacetylase HDAC6 (Homo sapiens, UniProt Q9UBN7).
T3 sequence (Q9UBN7 whole entry): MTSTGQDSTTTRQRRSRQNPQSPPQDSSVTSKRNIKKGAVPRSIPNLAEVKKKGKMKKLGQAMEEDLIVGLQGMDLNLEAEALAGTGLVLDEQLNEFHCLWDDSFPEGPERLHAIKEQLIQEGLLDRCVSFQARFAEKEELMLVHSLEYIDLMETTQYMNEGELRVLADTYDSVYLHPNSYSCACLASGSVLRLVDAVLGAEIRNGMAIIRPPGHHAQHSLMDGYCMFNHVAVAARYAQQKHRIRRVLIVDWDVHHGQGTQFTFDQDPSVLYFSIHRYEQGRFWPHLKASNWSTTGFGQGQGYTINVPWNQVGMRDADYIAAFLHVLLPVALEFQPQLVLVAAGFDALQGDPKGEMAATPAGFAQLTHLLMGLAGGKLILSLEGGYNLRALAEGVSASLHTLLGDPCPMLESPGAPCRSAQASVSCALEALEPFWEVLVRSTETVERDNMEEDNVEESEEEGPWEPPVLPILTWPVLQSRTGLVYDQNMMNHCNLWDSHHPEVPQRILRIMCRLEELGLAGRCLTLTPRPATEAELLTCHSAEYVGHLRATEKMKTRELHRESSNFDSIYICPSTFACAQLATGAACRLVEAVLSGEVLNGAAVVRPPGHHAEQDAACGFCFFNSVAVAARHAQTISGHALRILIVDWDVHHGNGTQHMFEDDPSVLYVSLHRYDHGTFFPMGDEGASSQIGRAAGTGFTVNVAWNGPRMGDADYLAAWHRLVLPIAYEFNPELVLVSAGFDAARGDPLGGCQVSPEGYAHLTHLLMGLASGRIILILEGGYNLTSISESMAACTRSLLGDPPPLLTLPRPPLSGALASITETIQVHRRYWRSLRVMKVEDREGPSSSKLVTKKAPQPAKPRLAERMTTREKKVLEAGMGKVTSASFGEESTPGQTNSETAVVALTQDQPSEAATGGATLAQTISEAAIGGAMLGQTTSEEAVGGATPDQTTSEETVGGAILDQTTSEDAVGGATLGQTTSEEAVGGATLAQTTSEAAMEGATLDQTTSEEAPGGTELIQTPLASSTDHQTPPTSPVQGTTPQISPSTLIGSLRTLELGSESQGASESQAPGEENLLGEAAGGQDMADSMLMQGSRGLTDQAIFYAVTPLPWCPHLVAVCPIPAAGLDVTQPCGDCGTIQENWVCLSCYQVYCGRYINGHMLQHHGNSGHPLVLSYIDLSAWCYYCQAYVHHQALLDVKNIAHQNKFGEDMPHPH
Description: Inhibition of recombinant human HDAC6 using Ac-GAK(Ac)-AMC as substrate preincubated for 10 mins followed by substrate addition and measured after 30 mins by fluorescence-based assay

Series [5] has as its target T3, Protein deacetylase HDAC6. Nature of the series: Inhibition of HDAC6 in human RPMI-8226 cells assessed as increase in tubulin acetylation incubated for 6 hrs by Western blot analysis. The class given is cell-based.
Series [6] concerns the target T2, Protein deacetylase HDAC6 (Mus musculus). Kind of series: In vivo inhibition of HDAC6 in hMFN2-induced CMT2A transgenic mouse model assessed as increase in acetylated tubulin in distal sciatic nerve tissue at 20 mg/kg, ip qd administered for 22 weeks by Western blot analysis. The class given is functional, organism-based.
The nature of series [7]: Half life in human pooled liver microsomes assessed as parent compound remaining measured up to 60 mins in presence of NADPH by LC-MS/MS analysis. In kind it is ADME, Microsome. The following applies: pooled liver microsomes.

The source made the active and inactive calls. No cut-off for these calls is given here.

With `NC(=O)c1ccc2c(c1)CCCN2Cc1ccc(C(=O)NO)cc1`, the half-life stood at 3.55 h in series [1] and 2.89 h in series [7]. Further, the IC50 was 0.651 µM in series [2] and 0.0007 µM in series [4]. For the same compound, the Activity in series [3] came to 175%. In addition, the EC50 in series [5] came to 0.14 µM. The inhibition entry in series [6] is “Active”.
